This assay has as its system MCH receptors. Description: MCH receptor activity class (method not given).
The mark [1] stands for this setting: class by percent of control at 10^-7 M or IC50.
Where [2] appears, read: class by percent of control at 10^−7 M or IC50.
Setting [3] is: class 1-3 by percent of control at 10^-7 M or IC50.
Setting [4] is: activity class per percent of control at 10^-7 M or IC50.
Setting [5] is: activity class 1-3: percent of control at 10^-7 M or IC50.
[6] abbreviates: MCH receptor, class by percent of control at 10^-7 M or IC50.
The mark [7] stands for this setting: MCH receptor activity class 1-3 (percent of control at 10^-7 M or IC50).

As for `CN(C)c1ccnc(N[C@H]2CC[C@@H](NC(=O)C(CC(=O)c3ccc(C(C)(C)C)cc3)c3cn(C)c4ccccc34)CC2)n1` (relative stereo) [compound 861], the class under setting [1] is listed as 3 (Class 3 The value of percent of control at 10^−7 M was more than 60% or the value of IC50 was more than 200 nM.).

Regarding `CN(C)c1ccnc(N[C@H]2CC[C@@H](NC(=O)Nc3ccc(Br)cc3Br)CC2)n1` [compound 2229], the class under setting [1] was 3 (Class 3 The value of percent of control at 10^−7 M was more than 60% or the value of IC50 was more than 200 nM.).

With `Cc1cc(C(=O)N[C@H]2CC[C@@H](Nc3nccc(N(C)C)n3)CC2)cc(C)c1[N+](=O)[O-]` [compound 913, N-(cis-4-{[4-(dimethylamino)pyrimidin-2-yl]amino}cyclohexyl)-3,5-dimethyl-4-nitrobenzamide], the class under setting [1] is 2 (Class 2: The value of percent of control at 10^−7 M was from 40% to 60% or the value of IC′50 was from 50 nM to 200 nM.).

For `Cc1cc(N(C)C)nc(N[C@H]2CC[C@@H](CNC(=O)c3ccc(F)c(F)c3)CC2)n1` [compound 2753, N-[(cis-4-{[4-(dimethylamino)-6-methylpyrimidin-2-yl]amino}cyclohexyl)methyl]-3,4-difluorobenzamide], the class under setting [2] is 3 (Class 3 The value of percent of control at 10^−7 M was more than 60% or the value of IC50 was more than 200 nM.).

`CN(C)c1nc(N[C@H]2CC[C@@H](NC(=O)c3cccc(Cl)c3)CC2)nc2c1CCCC2` [compound 460]: the class under setting [3] was 1 (Class 1: The value of percent of control at 10^−7 M was less than 40% or the value of IC50 was less than 50 nM.).

Take `COc1cc(CC(=O)N[C@H]2CC[C@@H](Nc3nc4c(c(N(C)C)n3)CCCC4)CC2)cc(OC)c1` [compound 978]: the class under setting [4] was 3 (Class 3 The value of percent of control at 10^−7 M was more than 60% or the value of IC50 was more than 200 nM.).

As for `CCc1cccc(C)c1NC(=O)N[C@H]1CC[C@@H](Nc2nc3c(c(N(C)C)n2)CCCC3)CC1` [compound 1662], under setting [5], the class was 1 (Class 1: The value of percent of control at 10^−7 M was less than 40% or the value of IC50 was less than 50 nM.).

Turning to `Cc1cc(NC(=O)N[C@H]2CC[C@@H](Nc3nc4c(c(N(C)C)n3)CCCC4)CC2)c([N+](=O)[O-])cc1C` [compound 1880], the class under setting [1] is listed as 3 (Class 3 The value of percent of control at 10^−7 M was more than 60% or the value of IC50 was more than 200 nM.).

Take `CNc1nc(N[C@H]2CC[C@@H](NC(=O)c3ccc(Cl)c(Cl)c3)CC2)ncc1C` [compound 3030]: the class under setting [2] was 3 (Class 3 The value of percent of control at 10^−7 M was more than 60% or the value of IC50 was more than 200 nM.).

For `CN(C)c1nc(N[C@H]2CC[C@@H](NC(=O)C3(c4ccc(Cl)cc4)CCCC3)CC2)nc2c1CCCC2` [compound 535], under setting [3], the class is 2 (Class 2: The value of percent of control at 10^−7 M was from 40% to 60% or the value of IC′50 was from 50 nM to 200 nM.).

On to `CC(Oc1ccccc1)C(=O)N[C@H]1CC[C@@H](Nc2nc3c(c(N(C)C)n2)CCCC3)CC1` (relative stereo) [compound 485], for which the class under setting [3] was 1 (Class 1: The value of percent of control at 10^−7 M was less than 40% or the value of IC50 was less than 50 nM.).

Take `Cc1cnc(N[C@H]2CC[C@@H](CNC(=O)c3ccc(Cl)c(Cl)c3)CC2)nc1N(C)C` [compound 2707, 3,4-dichloro-N-[(cis-4-{[4-(dimethylamino)-5-methylpyrimidin-2-yl]amino}cyclohexyl)methyl]benzamide]: the class under setting [2] is given as 1 (Class 1: The value of percent of control at 10^−7 M was less than 40% or the value of IC50 was less than 50 nM.).

As to `CN(C)c1cc(N[C@H]2CC[C@@H](NC(=O)COc3c(F)c(F)c(F)c(F)c3F)CC2)nc2ccccc12` [compound 122], the class under setting [6] is reported as 3 (Class 3 The value of percent of control at 10^−7 M was more than 60% or the value of IC50 was more than 200 nM.).

For `CN(C)c1nc(N[C@H]2CC[C@@H](NC(=O)Nc3ccc(F)cc3F)CC2)nc2c1CCCC2` [compound 1661], the class under setting [5] was 3 (Class 3 The value of percent of control at 10^−7 M was more than 60% or the value of IC50 was more than 200 nM.).

Consider `CN(C)c1nc(N[C@H]2CC[C@@H](CNC(=O)Oc3ccc(Br)cc3)CC2)nc2c1CCCC2` [compound 1603], for which the class under setting [5] is given as 3 (Class 3 The value of percent of control at 10^−7 M was more than 60% or the value of IC50 was more than 200 nM.).

Regarding `CN(C)c1nc(N[C@H]2CC[C@@H](NC(=O)Cc3ccccc3Br)CC2)nc2c1CCCC2` [compound 516], the class under setting [3] is 3 (Class 3 The value of percent of control at 10^−7 M was more than 60% or the value of IC50 was more than 200 nM.).

Turning to `CCc1ccc(CNC[C@H]2CC[C@@H](Nc3cc(N(C)C)c4ccccc4n3)CC2)s1` [compound 1157], under setting [1], the class is 3 (Class 3 The value of percent of control at 10^−7 M was more than 60% or the value of IC50 was more than 200 nM.).

Turning to `CC(=O)c1cccc(NC(=S)N[C@H]2CC[C@@H](Nc3nc4c(c(N(C)C)n3)CCCC4)CC2)c1` [compound 1925], the class under setting [6] was 3 (Class 3 The value of percent of control at 10^−7 M was more than 60% or the value of IC50 was more than 200 nM.).

For `Cc1cc(N(C)C)nc(N[C@H]2CC[C@@H](C(=O)NCc3ccc(Cl)c(Cl)c3)CC2)n1` [compound 2817, cis-N-(3,4-dichlorobenzyl)-4-{[4-(dimethylamino)-6-methylpyrimidin-2-yl]amino}cyclohexanecarboxamide], under setting [2], the class is reported as 1 (Class 1: The value of percent of control at 10^−7 M was less than 40% or the value of IC50 was less than 50 nM.).

As to `CN(C)c1nc(N[C@H]2CC[C@@H](NC(=S)NCC(c3ccccc3)c3ccccc3)CC2)nc2c1CCCC2` [compound 2030], the class under setting [6] is 2 (Class 2: The value of percent of control at 10^−7 M was from 40% to 60% or the value of IC′50 was from 50 nM to 200 nM.).

For `CN(C)c1ccnc(N[C@H]2CC[C@@H](CNC(=O)/C=C/c3ccc([N+](=O)[O-])cc3)CC2)n1` [compound 424], the class under setting [3] is listed as 1 (Class 1: The value of percent of control at 10^−7 M was less than 40% or the value of IC50 was less than 50 nM.).

As to `Cc1c(Cl)cccc1NC(=S)N[C@H]1CC[C@@H](Nc2nccc(N(C)C)n2)CC1` [compound 2351], the class under setting [7] is 3 (Class 3 The value of percent of control at 10^−7 M was more than 60% or the value of IC50 was more than 200 nM.).

`CSc1ccc(NC(=O)NC[C@H]2CC[C@@H](Nc3nccc(N(C)C)n3)CC2)cc1` [compound 2411]: the class under setting [7] is 3 (Class 3 The value of percent of control at 10^−7 M was more than 60% or the value of IC50 was more than 200 nM.).

For `COC(=O)c1cc(NC(=O)N[C@H]2CC[C@@H](Nc3nc4c(c(N(C)C)n3)CCCC4)CC2)cc(C(=O)OC)c1` [compound 1911], the class under setting [6] is on record as 3 (Class 3 The value of percent of control at 10^−7 M was more than 60% or the value of IC50 was more than 200 nM.).

In the case of `CN(C)c1nc(N[C@H]2CC[C@@H](CNC(=O)c3c(Cl)cc(Cl)cc3Cl)CC2)nc2c1CCCC2` [compound 668, 2,4,6-trichloro-N-[(cis-4-{[4-(dimethylamino)-5,6,7,8-tetrahydroquinazolin-2-yl]amino}cyclohexyl)methyl]benzamide], under setting [1], the class is given as 1 (Class 1: The value of percent of control at 10^−7 M was less than 40% or the value of IC50 was less than 50 nM.).

Consider “4-({[(cis-4-{[4-(dimethylamino)pyrimidin-2-yl]amino}-cyclohexyl)methyl]amino}methyl)-2,6-dimethoxyphenol [compound 1254]”, for which the class under setting [1] is on record as 1 (Class 1: The value of percent of control at 10^−7 M was less than 40% or the value of IC50 was less than 50 nM.).

As to `CN(C)c1nc(N[C@H]2CC[C@@H](NC(=S)Nc3ccccc3C#N)CC2)nc2c1CCCC2` [compound 2036], the class under setting [6] was 3 (Class 3 The value of percent of control at 10^−7 M was more than 60% or the value of IC50 was more than 200 nM.).

As for `CN(C)c1nc(N[C@H]2CC[C@@H](NC(=O)Nc3cc(Cl)ccc3[N+](=O)[O-])CC2)nc2c1CCCC2` [compound 1901], the class under setting [6] is 3 (Class 3 The value of percent of control at 10^−7 M was more than 60% or the value of IC50 was more than 200 nM.).

For the molecule `CN(C)c1nc(N[C@H]2CC[C@@H](NC(=O)c3cc(F)c(F)c(F)c3F)CC2)nc2c1CCCC2` [compound 564], under setting [3], the class is recorded as 3 (Class 3 The value of percent of control at 10^−7 M was more than 60% or the value of IC50 was more than 200 nM.).

On to `Cc1cc([N+](=O)[O-])ccc1NC(=S)N[C@H]1CC[C@@H](Nc2cc(N(C)C)c3ccccc3n2)CC1` [compound 2291], for which, under setting [7], the class is listed as 3 (Class 3 The value of percent of control at 10^−7 M was more than 60% or the value of IC50 was more than 200 nM.).

For the molecule `Cc1cccc(N(CCC#N)CCN[C@H]2CC[C@@H](Nc3nc4c(c(N(C)C)n3)CCCC4)CC2)c1` [compound 1489], the class under setting [1] is 2 (Class 2: The value of percent of control at 10^−7 M was from 40% to 60% or the value of IC′50 was from 50 nM to 200 nM.).

Take `CN(C)c1ccnc(N[C@H]2CC[C@@H](CNCc3cccc(Cl)c3)CC2)n1` [compound 1269]: the class under setting [1] is 3 (Class 3 The value of percent of control at 10^−7 M was more than 60% or the value of IC50 was more than 200 nM.).

On to `CCCN(CCC)S(=O)(=O)c1ccc(C(=O)N[C@H]2CC[C@@H](Nc3cc(N(C)C)c4ccccc4n3)CC2)cc1` [compound 138], for which the class under setting [6] is 3 (Class 3 The value of percent of control at 10^−7 M was more than 60% or the value of IC50 was more than 200 nM.).

On to `COc1ccc(NC(=O)N[C@H]2CC[C@@H](Nc3cc(N(C)C)c4ccccc4n3)CC2)cc1Cl` [compound 2151], for which the class under setting [1] was 3 (Class 3 The value of percent of control at 10^−7 M was more than 60% or the value of IC50 was more than 200 nM.).

Consider `CC1=C(CC(=O)N[C@H]2CC[C@@H](Nc3nc4c(c(N(C)C)n3)CCCC4)CC2)c2cc(F)ccc2/C1=C/c1ccc([S+](C)[O-])cc1` (relative stereo) [compound 1019], for which, under setting [4], the class is on record as 1 (Class 1: The value of percent of control at 10^−7 M was less than 40% or the value of IC50 was less than 50 nM.).

Source of the values: US20050197350A1, “Novel quinoline, tetrahydroquinazoline, and pyrimidine derivatives and methods of treatment related to the use thereof” (TAISHO PHARMACEUTICAL CO., LTD., priority 2003, published 2005).
